The record followed here is the Bradley open melting point set (2014).

Where a name gives a salt, the structure may show the parent alone.

Take `CC(=O)Nc1ccccc1C` [2'-methylacetanilide]: the melting point stood at 111 °C.

`Cc1ccc(C)c(C(=O)O)c1` had a melting point of 134 °C.

As for `CCCCP(=O)(CCCC)CCCC` [tri-n-butylphosphine oxide], the melting point was found to be 67 °C.

In turn, `CC(=O)C=Cc1ccc([N+](=O)[O-])o1` [3-Buten-2-one, 4- (5-nitro-2-furanyl)-] showed a melting point of 194 °C.

Regarding `CCOC(=O)c1ccccc1N` [ethyl anthranilate], the melting point amounted to 15 °C.

Compound `O=C(O)c1cccc([N+](=O)[O-])c1Cl` [2-chloro-3-nitrobenzoic acid] had a melting point of 184 °C.

Compound `CC(C)(C)c1cc(N)n[nH]1` [3-amino-5-tert-butyl-1h-pyrazole] returned a melting point of 77 °C.

For `CC(O)CC(=O)O` (stereo unspecified) [3-hydroxybutyric acid], the melting point was determined as 38 °C.

Compound `COc1cccc(C=O)c1O` [o-vanillin] registered a melting point of 44.5 °C.

Compound `ClCC(Cl)(Cl)Cl` [1,1,1,2-Tetrachloroethane] registered a melting point of -70 °C.

With `O=C1CCC(C(=O)O)=NN1` [1,4,5,6-tetrahydro-6-oxopyridazine-3-carboxylic acid], the melting point stood at 197 °C.

`c1ccc2cc3cc4ccccc4cc3cc2c1` [2,3-benzanthracene] registered a melting point of 341 °C.

`COc1cc(C(=O)NS(=O)(=O)c2ccccc2C)ccc1Cc1cn(C)c2ccc(NC(=O)OC3CCCC3)cc12` [Zafirlukast] gave a melting point of 139 °C.

The compound `O=C(O)CCCCC(=O)O` [adipic acid] displayed a melting point of 153 °C.

In turn, `CCCCCCCCC(C)=O` [2-decanone] returned a melting point of 3 °C.

In the case of `CCCC(C)=O` [Pentan-2-one], the melting point is -78 °C.

The compound `CC(C)(F)C(Br)C(=O)O` (stereo unspecified) [2-bromo-3-fluoroisovaleric acid] came in with a melting point of 54 °C.

`COP(=S)(OC)Oc1cc(Cl)c(Cl)cc1Cl` [fenchlorphos] displayed a melting point of 35 °C.

On to `Cc1cc(CC(=O)O)n(C)c1C(=O)c1ccc(Cl)cc1` [Zomepirac], for which the melting point came out at 178 °C.

`N#Cc1cccnc1` [3-cyanopyridine] yielded a melting point of 50 °C.

As to `O=C(Cl)C(=O)Cl` [Ethanedioyl dichloride], the melting point is -9 °C.

In the case of `CC1CC1` [cyclopropylmethane], the melting point was -177 °C.

`CC(O)C(C)O` (stereo unspecified) [Butane-2,3-diol] gave a melting point of 25 °C.

Compound `c1ccc2c(c1)Oc1ccccc1S2` [phenoxathiin] gave a melting point of 57 °C.

For `N#Cc1cc(F)c(N)cc1F` [4-amino-2,5-difluorobenzonitrile], the melting point amounted to 93 °C.

`CCCCNc1cc(C(=O)O)cc(S(N)(=O)=O)c1Oc1ccccc1` [Bumetanide] showed a melting point of 230 °C.

For `CCCCCCCCOc1ccc(NC(=O)c2ccc(C)cc2)cc1` [4-methyl-N-[4-(octyloxy)phenyl]benzamide], the melting point was 141 °C.

The compound `Oc1ccccc1C=Nc1ccccc1` [salicylideneaniline] showed a melting point of 50 °C.

In the case of `Cc1cc(N)nc(C)n1` [4-amino-2,6-dimethylpyrimidine], the melting point came to 185 °C.

For the compound `COc1ccc2c(c1)C(=O)C(=O)N2` [5-methoxyisatin], the melting point came out at 201 °C.

With `CCOC(=O)C(C#N)=C(SC)SC` [Ethyl 2-cyano-3,3-bis(methylsulfanyl)acrylate], the melting point turned out to be 54 °C.

As to `O=C(Cl)c1cccc2ccccc12` [1-naphthoyl chloride], the melting point was determined as 18 °C.

As to `COc1ccc2ncccc2c1` [6-methoxyquinoline], the melting point was 19 °C.

Consider `O=C(c1ccccc1)c1ccc(O)cc1O` [2,4-dihydroxybenzophenone], for which the melting point was found to be 146 °C.

As for `CC12CCC(=O)CC1CCC1C2CCC2(C)C(OC=O)CCC12` (stereo unspecified) [3-oxoandrostan-17-yl formate], the melting point is 125 °C.

In turn, `O=C(O)Cc1ccccc1Nc1c(Cl)cccc1Cl` [Diclofenac] came in with a melting point of 157 °C.

In general, melting point refers to the temperature of the solid-liquid transition.
